# According to patent publication US20080305054A1, “Use of Glycosylated Flavanones for the Browning of Skin or Hair” (SYMRISE GMBH & CO. KG, priority 2004, published 2008):
# Where two headings read alike, the source gives them in different places.
# Legend:
# [1] = Cytotoxicity determination (MTT); format: cell-based, mouse; conditions: mouse, B16V mouse melanoma cells; Table 3, repeat of the Table 1 values; read-out: IC50 cytotox
# Description: (§1) B16V mouse melanoma cells are disseminated in a 96-well microtitre plate in a concentration of 2×10^4 cells/well (B16V). After cultivation for 24 h at 37° C. and 5% CO2 in RPMI medium (B16V cells), enriched with 10% foetal calf serum, the medium is drawn off. Various concentrations of the test substances, dissolved in fresh medium enriched with 5% foetal calf serum, are added and incubated for a further 48 h. In parallel the cells are incubated with SDS as standard in concentrations of 0.01 mM, 0.1 mM, 1 mM and 10 mM. After incubation the medium is drawn off and the cells are incubated for 2 h with MTT (3-[4,5-dimethylthiazol-2-yl]2,5-diphenyl tetrazolium bromide). After extraction of the dye (MTT) with acetic acid SDS in DMSO (10 min), the absorption (A) is measured at 570 nm.
# (§2) The mean and standard deviation of the controls, blanks and samples are calculated. The mean of the blank is subtracted from the means of the controls and samples. The viability of the cells is stated as a percentage relative to the controls (100%):
# (§3) Viability (%)=[(Atest compound/Acontrol)×100]
# (§4) The IC50 (mean inhibitory concentration) indicates the test substance concentration at which 50% of the cells are vital.
# [2] = system: B16V mouse melanoma cells; test: Cytotoxicity determination (MTT); format: cell-based; conditions: MTT viability, 48 h incubation, concentration at which 50% of the cells are vital
# Description: as §1, §2, §3, §4
# [3] = system: B16V mouse melanoma cells; test: Pigmenting effect (stimulation of pigmentation); format: cell-based
# Description: mouse melanoma cells are disseminated in a 96-well microtitre plate in a concentration of 5×10^3 cells/well. After cultivation for 24 h at 37° C. and 5% CO2 in RPMI medium, enriched with 10% foetal calf serum, various concentrations of the test substances and 10 nM α-MSH (α-melanocyte stimulating hormone) are added and incubated for a further 96 h. […] The stimulation of pigmentation in the presence of the test compounds was calculated using the following equation: Stimulation of pigmentation (%)=[(A test compound/A control)×100]-100 From the stimulation of pigmentation (%) in a series of dilutions of test compounds, the EC50 for each test compound was calculated. This is the concentration of a test compound at which pigmentation is stimulated by 50%.
# [4] = system: B16V melanoma cells; conditions: cited from earlier work
# [5] = system: melanoma cells; conditions: cited from earlier work
# [6] = system: glucose absorption; conditions: cited from earlier work
# [7] = system: B16V melanoma cells; conditions: cited from earlier work; remark: listed apart in the source
# [8] = system: tyrosinase; conditions: of 27 flavonoids tested; cited from earlier work
# [9] = system: male rats; conditions: cited from earlier work
# [10] = system: melanoma cells; conditions: cited from earlier work; remark: listed apart in the source
# [11] = system: melanin synthesis; conditions: cited from earlier work
# [12] = Mus musculus, 96 h, 96 h with 10 nM α-MSH, concentration at which pigmentation is stimulated by 50%, non-cytotoxic concentration range
# [13] = Mus musculus, read-out: EC50 pigm. effect, Table 3, repeat of the Table 2 values
# [14] = 96 h with 10 nM α-MSH, concentration at which pigmentation is stimulated by 50%, non-cytotoxic concentration range
# [15] = Table 3, repeat of the Table 2 values
molecule,measurement,setting,value
COc1ccc([C@@H]2CC(=O)c3c(O)cc(O[C@@H]4O[C@H](CO[C@@H]5O[C@@H](C)[C@H](O)[C@@H](O)[C@H]5O)[C@@H](O)[C@H](O)[C@H]4O)cc3O2)cc1O [Hesperidin],IC50 at 48 h,[1],1500 µM
same,IC50,"[2]; Mus musculus, 48 h",> 1000 µM
same,EC50,[3]; [12],< 2 µM
same,EC50,[3]; [13],1.5 µM
C[C@@H]1O[C@@H](O[C@H]2[C@H](Oc3cc(O)c4c(c3)OC(c3ccc(O)cc3)CC4=O)O[C@H](CO)[C@@H](O)[C@@H]2O)[C@H](O)[C@H](O)[C@H]1O (stereo partly drawn) [Naringin],IC50 at 48 h,[1],> 10000 µM
same,IC50,[2],> 10000 µM
same,EC50,[3]; [13],0.5 µM
COc1ccc([C@@H]2CC(=O)c3c(O)cc(O)cc3O2)cc1O [Hesperetin],IC50 at 48 h,[1],40 µM
same,IC50,"[2]; Mus musculus, read-out: IC50",40 µM
same,EC50,[3]; [14],inactive
same,EC50 pigm. effect,[3]; [15],inactive
O=C(CCc1ccc(O)cc1)c1c(O)cc(O)cc1O [phloretin],effect on melanogenesis,[4]; non-cytotoxic concentrations,ineffective
O=c1c(-c2ccc(O)cc2)coc2cc(O)cc(O)c12 [genistein],effect on melanin production / melanogenesis,[5],increases melanin production
O=C(CCc1ccc(O)cc1)c1c(O)cc(O)cc1O[C@@H]1O[C@H](CO)[C@@H](O)[C@H](O)[C@H]1O [Phloridzin],inhibition of glucose absorption,[6],inhibitor of glucose absorption
same,toxicity to reproduction,[6],toxic to reproduction
same,melanin relative to the untreated control,[4]; 1 mM,+81%
same,cytotoxicity,[7],no cytotoxicity
O=c1c(O)c(-c2cc(O)c(O)c(O)c2)oc2cc(O)cc(O)c12 [myricetin],tyrosinase inhibition,[8],tyrosinase inhibition
O=c1c(-c2ccc(O)cc2)coc2cc(O)ccc12 [daidzein],effect on melanin production / melanogenesis,[5],no effect on melanogenesis
O=c1c(O)c(-c2ccc(O)cc2)oc2cc(O)cc(O)c12 [Kaempferol],IC50 at 48 h,[1],43 µM
same,IC50,"[2]; Mus musculus, read-out: IC50",43 µM
same,tyrosinase inhibition,[8],tyrosinase inhibition
same,EC50,[3]; [14],inactive
same,EC50 pigm. effect,[3]; [15],inactive
O=C1C[C@@H](c2ccc(O)cc2)Oc2cc(O)cc(O)c21 [Naringenin],IC50 at 48 h,[1],30 µM
same,IC50,"[2]; Mus musculus, read-out: IC50",30 µM
same,EC50,[3]; [14],inactive
same,EC50 pigm. effect,[3]; [15],inactive
O=c1c(O)c(-c2ccc(O)c(O)c2)oc2cc(O)cc(O)c12 [Quercetin],IC50 at 48 h,[1],48 µM
same,IC50,"[2]; Mus musculus, read-out: IC50",48 µM
same,tyrosinase inhibition,[8],tyrosinase inhibition
same,hepatotoxic effect,[9],hepatotoxic effect
same,EC50,"[3]; Mus musculus, 96 h with 10 nM α-MSH, concentration at which pigmentation is stimulated by 50%, non-cytotoxic concentration range, read-out: EC50",15 µM
same,EC50,"[3]; Mus musculus, Table 3, repeat of the Table 2 values, read-out: EC50 pigm. effect",15 µM
same,melanin relative to the untreated control,[4]; maximum non-cytotoxic concentration of 0.003 mM,+38%
same,maximum non-cytotoxic concentration,[7],0.003 mM
O=c1cc(-c2ccc(O)cc2)oc2cc(O)cc(O)c12 [Apigenin],IC50 at 48 h,[1],33 µM
same,IC50,"[2]; Mus musculus, read-out: IC50",33 µM
same,EC50,[3]; [14],inactive
same,EC50 pigm. effect,[3]; [15],inactive
O=c1cc(-c2ccc(O)c(O)c2)oc2cc(O)cc(O)c12 [Luteolin],IC50 at 48 h,[1],37 µM
same,IC50,"[2]; Mus musculus, read-out: IC50",37 µM
same,tyrosinase inhibition,[8],tyrosinase inhibition
same,EC50,[3]; [14],inactive
same,EC50 pigm. effect,[3]; [15],inactive
OC[C@H]1O[C@@H](Oc2cc3c(O)cc(O)cc3[o+]c2-c2ccc(O)c(O)c2)[C@H](O)[C@@H](O)[C@@H]1O [cyanidin-3-β-D-glucoside],effect on melanin synthesis,[10],stimulates melanin synthesis
COc1ccc(C2CC(=O)c3c(O)cc(OC4OC(CO)C(O)C(O)C4OC4OC(C)C(O)C(O)C4O)cc3O2)cc1O (stereo not drawn) [Neohesperidin],IC50 at 48 h,[1],> 4000 µM
same,IC50,[2],> 4000 µM
same,EC50,[3]; [12],< 2 µM
same,EC50,[3]; [13],1 µM
O=C(O[C@@H]1Cc2c(O)cc(O)cc2O[C@@H]1c1cc(O)c(O)c(O)c1)c1cc(O)c(O)c(O)c1 [epigallocatechin gallate],effect on melanin synthesis,[11],inhibition of melanin synthesis
O=c1c(O)cc([C@H]2Oc3cc(O)cc(O)c3C[C@H]2O)cc2c([C@H]3Oc4cc(O)cc(O)c4C[C@H]3O)cc(O)c(O)c12 [theaflavin],tyrosinase inhibition,[8],tyrosinase inhibition
theaflavinmonogallate,tyrosinase inhibition,[8],tyrosinase inhibition
O=c1c(O)c(-c2ccc(O)cc2O)oc2cc(O)cc(O)c12 [morin],tyrosinase inhibition,[8],tyrosinase inhibition
